Legend:
Test in all cases: cells
Parameters in all cases: CellTiter-Glo 2.0 luminescence proliferation/viability assay, single agents, human tumour cell line panel
NCI-H2122 = conditions: Homo sapiens, NCI-H2122, 96 h; single agent; read-out: IC50 SMACm
Method: (§1) The effect of BETi, SMACm alone or in combination cell viability was determined using a 96-h CellTiter-Glo2.0 proliferation assay. Cells were seeded in assay plates and placed at 37°C with 5% CO2 for twenty-four hours before treatment. Compounds were added in triplicate in gradients of increasing concentrations, in case of SMACm ranging between 4.5 nM and 10 μM and in case of BETi between 1.4 nM and 3 μM. DMSO served as control. Cell viability was measured by luminescence analysis using luminescence read on Envision plate readers (PerkinElmer). An additional set of colorectal cancer cell lines was assayed with technical duplicates and experimental triplicates. Cell viability was measured by luminescence analysis using luminescence read on Tecan Plate reader. The effects of drug combinations were analyzed using the Bliss Independence Model.[34] Synergy score was calculated by the average of 3 highest and 3 lowest BLISS Gaps between predicted and measured POC (Percentage of Control) values. To investigate the synergistic interaction between BI 894999 (hereafter, BETi) and BI 891065 (hereafter, SMACm), we evaluated the in vitro anti-tumor effect of the single agents or the combination in a large panel of 151 cancer cell lines of different tissue origin: CRC, gastric cancer, non-small cell lung cancer (NSCLC), and pancreatic carcinoma (Figures 1C–1F). As a mono-agent, SMACm was able to inhibit cell proliferation only in a limited number of tested cell lines (4%, Table S2). Most of the cell lines responded to inhibition by BETi, with sensitivity ranging from 10 to 100 nM (Figure 1C). Bliss Gap analysis, performed to analyze the effect of the BETi+SMACm combination on tumor cell growth (Figures 1D–1F), unveiled potent synergistic activity across the cell models tested (Figure 1E), independent of tumor type (Figure 1F).  Figure 1 The combinatorial effect of BI 894999 and BI 891065 across a panel of human tumor cell lines (A) Selectivity and potency profiles of BI 891065. Top left, structure of BI 891065. Top right, IC50 values for BI 891065 inhibition of cIAP1, cIAP2, and XIAP. Bottom, physicochemical properties of […]. (B) WES (Simple Western System) analysis of cIAP1, cIAP2, and XIAP levels upon treatment of HT-29 cells with indicated concentrations of BI 891065 for 6 h (C) IC50 values determined in cell proliferation assays (n = 151) individually for BETi BI 894999 and SMACm BI 891065. Each point represents a cell line tested. (D) Example of proliferation assay for synergy analysis in LoVo cell line; shown is combination plate map matrix and the cell growth inhibition (CGI) at the indicated concentrations; CGI values < 100%: tumor cell growth, CGI 100%: tumor cell stasis, and CGI > 100%: tumor cell killing. (E) Synergy scores across the tested panel of cell lines obtained using Bliss synergy analysis. (F) Violin plots showing the synergy scores for BETi and SMACm combination across indications. N is the number of cell lines tested in each indication group.

LS-174T = conditions: Homo sapiens, LS174T, 96 h; single agent; read-out: IC50 SMACm
Method: as §1

SNU503 = conditions: 96 h; single agent; read-out: IC50 SMACm
Method: as §1

SW480 = conditions: Homo sapiens, SW480, 96 h; single agent; read-out: IC50 SMACm
Method: as §1

KP-4 = conditions: Homo sapiens, KP-4, 96 h; single agent; read-out: IC50 SMACm
Method: as §1

COLO94H = conditions: 96 h; single agent; read-out: IC50 SMACm
Method: as §1

SNU283 = conditions: 96 h; single agent; read-out: IC50 SMACm
Method: as §1

HLC-1 = conditions: 96 h; single agent; read-out: IC50 SMACm
Method: as §1

NCI-H520 = conditions: Homo sapiens, NCI-H520, 96 h; single agent; read-out: IC50 SMACm
Method: as §1

MDST8 = conditions: MDST8, 96 h; single agent; read-out: IC50 SMACm
Method: as §1

SW837 = conditions: Homo sapiens, SW837, 96 h; single agent; read-out: IC50 SMACm
Method: as §1

KM12 = conditions: Homo sapiens, KM12, 96 h; single agent; read-out: IC50 SMACm
Method: as §1

SNU977 = conditions: 96 h; single agent; read-out: IC50 SMACm
Method: as §1

LU-99 = conditions: Homo sapiens, Lu-99, 96 h; single agent; read-out: IC50 SMACm
Method: as §1

BxPC-3 = conditions: Homo sapiens, BXPC-3, 96 h; single agent; read-out: IC50 SMACm
Method: as §1

IC50 (NCI-H2122): 5.15 µM
IC50 (SNU503): 5.23 µM
IC50 (SW480): 5.81 µM
IC50 (COLO94H): 4.69 µM
IC50 (SNU283): 3.78 µM
IC50 (NCI-H520): 4.01 µM
IC50 (SW837): 6.24 µM
IC50 (SNU977): 2.88 µM
IC50 (BxPC-3): 0.53 µM
SMILES: CN[C@@H](C)C(=O)Nc1ccc(-c2c(-c3cccnc3OC)nc3cc(C)ccn23)c(C#Cc2ccc3c(C)nccc3c2)n1 [SMACm, BI 891065]
IC50 (LS-174T): 2.41 µM
IC50 (KP-4): 4.16 µM
IC50 (HLC-1): 5.83 µM
IC50 (MDST8): 4.78 µM
IC50 (KM12): 7.46 µM
IC50 (LU-99): 7.37 µM

— paper PMC12490239, “Combining BET inhibition with SMAC mimetics restricts tumor growth and triggers immune surveillance in preclinical cancer models” (Cell Reports Medicine, 2025)
